Measurements taken from patent publication US20260166159A1, “KRAS G12D DEGRADATION AGENT, AND PREPARATION METHOD AND USE THEREFOR” (LEADINGTAC PHARMACEUTICAL (SHAOXING) CO., LTD., priority 2022, published 2026).

How the values were obtained:
[1] = system: KRAS G12D mutant human lung cancer cell A427; assay: 3D cell proliferation inhibition assay, A427; assay type: cell-based; settings: A-427, 168 h, A427, 7 days, CTG, numeric values
Procedure, shortened: (§1)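 3D growth, low-adsorption plate; 5×10^2 cells/well; cpd 10000–0.026 nM final, 0.2% DMSO; 7 d, 37 °C/5% CO2. CTG luminescence, 60 min RT. % inhibition vs DMSO (cells) and medium blanks; IC50 by nonlinear fit.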

[2] = system: KRAS G12D mutant human metastatic pancreatic cancer cell AsPc-1; assay: 3D cell proliferation inhibition assay, AsPc-1; assay type: cell-based; settings: ASPC1, 168 h, AsPc-1, 7 days, CTG, numeric values
Procedure, shortened: as §1

KRAS-G12D [3] = biological target: T1, KRAS-G12D (Homo sapiens, UniProt P01116, G12D); assay: KRAS-G12D degradation assay (Western Blot), Panc 04.03 cells; assay type: cell-based; settings: 24 h
T1 construct: endogenous in cells; host or cells: A-427 (ATCC), AGS, AsPc-1, Panc 04.03
Description: (§2) The degradation effects of the compounds on KRAS-G12D were investigated on KRAS G12D mutant human lung cancer cell A-427 (ATCC), KRAS G12D mutant human gastric cancer cell AGS, KRAS G12D mutant human metastatic pancreatic cancer cell AsPc-1, and KRAS G12D mutant human pancreatic adenocarcinoma cell Panc 04.03. The specific procedures were as follows: 0.95 mL of cells were seeded into each well of a 24-well cell culture plate to achieve a cell density of 5×10^5 cells/well; and the cell plate was incubated in an incubator at 37° C. with 5% CO2 overnight. Then 50 μL of the compound solution after dilution was added to each of the wells with the corresponding cells, so that the final concentration of the compound was in a range of 0.03-3000 nM. The final concentration of DMSO was 0.25%. After the compounds were added, the cell plate was incubated in the incubator at 37° C. with 5% CO2 for 24 h. The culture medium in the 24-well cell culture plate was removed, and the plate was washed twice with 1×PBS (KeyGEN). 120 μL of RIPA (strong) lysis buffer (Beyotime) supplemented with 1 mM phenylmethylsulfonyl fluoride, a protease inhibitor mixture (Beyotime), and a protease phosphatase inhibitor mixture (Beyotime) was added to lyse adherent A-427 cells at the bottom of the cell culture plate. After the plate was left to stand on ice for 30 min, the protein lysate in each well was transferred to a 1.5 mL centrifuge tube and centrifuged at 15000 g for 20 min at 4° C. The cell lysate supernatants after centrifugation were cryopreserved in a refrigerator at −80° C. for later use.
(§3) After the samples of the cell lysate supernatants that had been prepared were thawed from the refrigerator at −80° C., the total protein concentrations of the cell lysates were determined using a BCA protein quantification kit (Tiangen). The total protein concentrations of the samples were then adjusted to 0.5 μg/μL with PBS and 5×SDS-PAGE protein loading buffer (Beyotime), and the samples were incubated in a water bath at 100° C. for 15 min. The samples were then incubated in an ice bath for 5 min and centrifuged at 14000 g for 1 min at 4° C., and the supernatants were mixed well as loading samples for the Western Blot assay. The samples were loaded into wells of a 10% precast gel (KeyGEN) with a loading volume of 10 μL (total protein: 5 μg), a sufficient Tris-MOPS-SDS running buffer (Adamas) was added, and then electrophoresis was performed at a constant voltage of 120 V for 55 min. After the electrophoresis, the proteins on the gel were transferred to PVDF membranes at a constant current of 250 mA for 55 min. After the membrane transfer, the PVDF membranes were incubated in 1× Quick Block blocking buffer (Beyotime) at room temperature for 30 min. After the blocking, the PVDF membranes were separately incubated at 4° C. overnight with the KRAS antibody (Abcam) diluted in a ratio of 1:1000 and the […] antibody (Abcam) diluted in a ratio of 1:2000 in 5% BSA as the diluent, and then washed with 1×TBST buffer (2.4 g of Tris, 8.8 g of NaCl, 1.5 mL of Tween 20, with pH adjusted to 7.4, with the volume brought to 1 L) 3 times for 10 min/time. The membranes were incubated with a secondary antibody (Abcam) diluted in 5% BSA at room temperature for 2 h, and then washed with 1×TBST buffer 3 times for 10 min/time. Finally, the membranes were incubated with Clarity Western ECL Substrate (BIO-RAD) for 5 min for luminescence and color development, and a ChemiScope 6200 Touch chemiluminescence imaging system (Clinx) was used for color development and protein mapping. Gray value analysis of the protein maps was performed using the chemiluminescence analysis software (Clinx). The gray correction value for each sample was calculated using the formula: gray correction value=(gray value of target protein/gray value of corresponding internal reference)×10^3. Then degradation rates were calculated by comparison with the gray correction value of the control group. […]

[4] = system: KRAS G12D mutant human pancreatic cancer cell HPAC; assay: 3D cell proliferation inhibition assay, HPAC; assay type: cell-based; settings: 168 h, 7 days, CTG
Procedure, shortened: as §1

KRAS-G12D [5] = biological target: T1, KRAS-G12D; assay: KRAS-G12D degradation assay (Western Blot), AGS cells; assay type: cell-based; settings: 24 h
Description: as §2, §3

[6] = system: KRAS G12D mutant human gastric cancer cell AGS; assay: 3D cell proliferation inhibition assay, AGS; assay type: cell-based; settings: 168 h, 7 days, CTG, numeric values
Procedure, shortened: as §1

[7] = system: KRAS G12D mutant human pancreatic cancer cell Panc 04.03; assay: 3D cell proliferation inhibition assay, Panc 04.03; assay type: cell-based; settings: 168 h, Panc 04.03, 7 days, CTG, numeric values
Procedure, shortened: as §1

KRAS-G12D [8] = biological target: T1, KRAS-G12D; assay: KRAS-G12D degradation assay (Western Blot), AsPc-1 cells; assay type: cell-based; settings: for DC50: 24 h; for Dmax: ASPC1, 24 h
Procedure, shortened: (§4)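 Western blotting of lysates (5 μg protein) quantified KRAS against a β-actin reference after 24 h exposure to compound at final 0.03–3000 nM in 0.25% DMSO. Cells were A-427, AGS, AsPc-1 or Panc 04.03, all KRAS G12D, at 5×10^5/well. Degradation versus control yielded DC50 and Dmax.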

KRAS-G12D [9] = biological target: T1, KRAS-G12D; assay: KRAS-G12D degradation assay (Western Blot), A-427 cells; assay type: cell-based; settings: A427 cells, 24 h, numeric values; for Dmax: A-427
Procedure, shortened: as §4

KRAS-G12D mutant cells = KRAS-G12D mutant cells versus wild-type tumor cells; cited from earlier work
[10] = system: xenograft tumor models of both pancreatic cancer and colorectal cancer; settings: cited from earlier work

T1 sequence (P01116 1-188 isoform P01116-2 G12D): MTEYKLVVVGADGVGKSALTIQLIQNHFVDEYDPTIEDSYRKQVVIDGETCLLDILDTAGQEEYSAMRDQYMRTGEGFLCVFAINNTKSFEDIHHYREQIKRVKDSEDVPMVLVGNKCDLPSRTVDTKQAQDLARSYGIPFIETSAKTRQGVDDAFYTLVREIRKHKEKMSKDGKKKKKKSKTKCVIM

`C#Cc1cccc2cc(O)cc(-c3ccc4c(N5CC6CCC(C5)N6)nc(OCC5(CN6CCN(CC7CCC8(CC7)CCN(C(=O)c7ccc(Cl)c(N9CCC(=O)NC9=O)c7)CC8)CC6)CC5)nc4c3F)c12` [Example 78, 1-(5-(9-((4-((1-(((4-(3,8-diazabicyclo[3.2.1]octan-3-yl)-7-(8-ethynyl-3-hydroxynaphthalen-1-yl)-8-fluoroquinazolin-2-yl)oxy)methyl)cyclopropyl)methyl)piperazin-1-yl)methyl)-3-azaspiro[5.5]undecane-3-carbonyl)-2-chlorophenyl)dihydropyrimidine-2,4(1H,3H)-dione] gave an IC50 [1] of 16.3 nM, an IC50 [2] of 17 nM and a DC50 (KRAS-G12D [3]) of 16.3 nM. For the same compound, the Dmax (KRAS-G12D [3]) was 100%, the IC50 [4] was 18.7 nM and the DC50 (KRAS-G12D [5]) was 28.9 nM. The Dmax (KRAS-G12D [5]) was 92.6%, the IC50 [6] was 9.25 nM and the IC50 [7] was 37.9 nM. The DC50 (KRAS-G12D [8]) was 23.7 nM, the Dmax (KRAS-G12D [8]) was 100% and the DC50 (KRAS-G12D [9]) was 10.1 nM. It also gave a Dmax (KRAS-G12D [9]) of 70.2%.

For `C#Cc1cccc2cc(O)cc(-c3ncc4c(N5CC6CCC(C5)N6)nc(OCC5(CN6CCN(CC7CCC8(CC7)CCN(C(=O)c7ccc(OC)c(N9CCC(=O)NC9=O)c7)CC8)CC6)CC5)nc4c3F)c12` [Example 82, 1-(5-(9-((4-((1-(((4-(3,8-diazabicyclo[3.2.1]octan-3-yl)-7-(8-ethynyl-3-hydroxynaphthalen-1-yl)-8-fluoropyrido[4,3-d]pyrimidin-2-yl)oxy)methyl)cyclopropyl)methyl)piperazin-1-yl)methyl)-3-azaspiro[5.5]undecane-3-carbonyl)-2-methoxyphenyl)dihydropyrimidine-2,4(1H,3H)-dione], the IC50 [1] was 21.8 nM, the IC50 [2] was 4.95 nM and the DC50 (KRAS-G12D [3]) was 6.74 nM. For the same compound, the Dmax (KRAS-G12D [3]) was 100%, the IC50 [4] was 4.15 nM and the DC50 (KRAS-G12D [5]) was 3.84 nM. The Dmax (KRAS-G12D [5]) was 97.7%, the IC50 [6] was 5.78 nM and the IC50 [7] was 14.1 nM. It also gave a DC50 (KRAS-G12D [8]) of 12.6 nM, a Dmax (KRAS-G12D [8]) of 93.7% and a DC50 (KRAS-G12D [9]) of 1.21 nM. It also gave a Dmax (KRAS-G12D [9]) of 99%.

In the case of `C#Cc1c(F)ccc2cc(O)cc(-c3ncc4c(N5CC6CCC(C5)N6)nc(OC[C@@]56CCCN5C[C@H](F)C6)nc4c3F)c12` [MRTX1133], the specificity (KRAS-G12D mutant cells) is listed as “more than 1000 times” and the “inhibition in xenograft tumor models” value [10] is listed as “Dose-dependent inhibition”.
